According to patent US20160091487A1, “ENGINEERING INDIVIDUALLY ADDRESSABLE CELLULAR SPHEROIDS USING AQUEOUS TWO-PHASE SYSTEMS” (priority 2012, published 2016):

Tested on: MDA-MB-157 spheroids
Assay: Viability of ATPS-generated cancer cell spheroids treated with cisplatin (PRESTO BLUE enzymatic assay)
Type: cell-based
Details: cisplatin 25 to 200 μM, four days incubation
Excerpt: Component 1 contains 5%(w/w) polyethylene glycol (PEG, Mw: 35,000) and component 2 contains 12.8%(w/w) Dextran (DEX, Mw: 500,000). […] First, the PEG phase is loaded into wells of a well plate (destination plate) and this plate is placed on the work surface of a robotic liquid handler (FIG. 2). Then cells are harvested from a culture dish, mixed with the DEX phase at a 1:1 volumetric ratio to reduce DEX concentration to 6.4% (w/w), and loaded into a second plate (source plate). This plate is also placed on the work surface of the liquid handler. Pipette tips are mounted onto the dispense head of the liquid handler (FIG. 3) and are immersed into the source plate to load a defined volume (˜0.3 microliters) of the cell suspension in DEX phase. After retraction from the source plate, pipette tips are lowered into the destination plate and dispense their content. Dispensed solution forms a single droplet containing cells in each well and the droplet remains immiscible from its surrounding PEG phase (FIG. 4a). Cells aggregate and form an individual spheroid in each well (FIG. 4b and FIG. 5). […] The drug, diluted with culture media, was renewed once by the addition of 50 μL after two days of incubation.

## N.N.[Cl][Pt][Cl] [cisplatin]
  percent viability trend against drug concentration: gradual decrease as the cisplatin concentration increases
